# ChEMBL document CHEMBL1151116, “In vitro study of the anticholinergic and antihistaminic activities of protopine and some derivatives” (J Nat Prod, 1988)
# Experiments:
# Ileum [1] = test: Inhibition of acetylcholine-induced contraction in guinea pig ileum preincubated for 5 mins before acetylcholine challenge; assay type: functional, tissue-based, Cavia porcellus
# Ileum [2] = test: Inhibition of acetylcholine-induced contraction in guinea pig ileum at 0.28 to 2.8 uM preincubated for 5 mins before acetylcholine challenge; assay type: functional, Cavia porcellus; set-up: scale not given: the % may be the effect or the level left
structure (smiles),measurement,setting,value
CN1[C@@H]2CC[C@H]1C[C@@H](OC(=O)C(CO)c1ccccc1)C2 (stereo partly drawn) [ATROPINE],Kb,"Ileum [1]; Cavia porcellus, Ileum, read-out: pA2 (converted)",2.04 nM
C[N+]1([O-])CCc2cc3c(cc2C(=O)Cc2ccc4c(c2C1)OCO4)OCO3 (stereo not drawn),Activity,Ileum [2],20%
COc1ccc(Cc2nccc3cc(OC)c(OC)cc23)cc1OC [PAPAVERINE],pD2,Ileum [1],5.08
